Patent US4578382A, “4-acylamino-1-azaadamantanes, and compositions for use thereof in medicine” (Etablissements Nativelle S.A., priority 1981, dated 1986)

Tests used:
[1] = Lawson test (cardiac antifibrillatory power, chloroform); conditions: in vivo, ip; mouse, intraperitoneal; read-out: Maximum Dose Tolerated
[2] = Acute toxicity in the mouse (LD 50, Litchfield and Wilcoxon); conditions: in vivo, ip, intraperitoneal, read-out: LD 50 I.P.
Method: The acute toxicity of the derivatives of the invention were studied by intraperitoneal administration (I.P.) on the mouse (10 animals, 5 males and 5 females per dose) and calculation of the lethal dose 50 (LD 50) in accordance with the method of Litchfield and Wilcoxon (J. Pharmacol. 96, 99-113 (1949)).
In certain cases (derivatives of Examples 4, 6, 9), the LD 50 was also calculated after oral administration (P.O.) of the derivatives.

[3] = system: anoxic ventricular fibrillation; test: Lawson test (cardiac antifibrillatory power, chloroform); assay type: in vivo; conditions: ip; mouse, intraperitoneal, 10 minutes before chloroform
Method: The Lawson test is a test for the study of the cardiac antifibrillatory power of the derivatives. The mice (20 per group) received an intraperitoneal injection of the derivative 10 minutes before being placed in a chloroform-saturated atmosphere. Upon respiratory arrest, the thorax was opened (5 to 10 seconds) and whether or not the heart was in ventricular fibrillation was checked. The efficacy dose 50 (ED 50) of the derivative being studied is the dose which protects half the mice against anoxic ventricular fibrillation.

[4] = system: ventricular arrhythmias and death induced by the aconitine; test: Aconitine intoxication test in the anesthetized rat; assay type: in vivo; conditions: i.v., vs untreated control
From the text: (§1) Narcisse et al, Ann. Pharma. Fr., 37, 325-330 (1979), in the rat by the aconitine intoxication test of S. Witchitz et al, Coeur Med. Int., X(2), 281-286, (1971) and in the dog by the Harris test described in Circulation, 1, 1318, (1950) and by the test with adrenalin after experimental infarct of I. J. Steffe et al, J. Pharmacol. Exp. Ther., 214, 50-57 (1980).
The anesthetized rat was intoxicated with an intravenous perfusion of aconitine while its electrocardiogram (ECG) was permanently recorded. During the perfusion at constant rate, the time necessary for the appearance of ventricular arrhythmias, successive extrasystoles (ESV), then stable ventricular tachycardium (TV) and the time within which the animal died were measured.
The animals were divided into a control group (untreated) and treated groups (different doses). The results are expressed as a percentage of prolonging the time of appearance of the arrhythmias and of death of the treated groups in reaction to the control group.
The results obtained are shown in Table 4 below and express the percentage of prolongation of the time of appearance of ventricular arrhythmias (ventricular extrasystoles and ventricular tachycardiums), and of the death, induced by the aconitine after an intravenous injection (I.V.) of several derivatives of the invention, in relation to a group of untreated control animals.

[5] = system: ventricular arrhythmias with adrenalin; test: Test with adrenalin after experimental infarct; assay type: in vivo, dog
From the text: as §1
2 to 5 days after an experimental infarct, the effects of discontinuous injections (in intravenous bolus of […] of basic adrenalin) of adrenalin were observed on the electrocardioagram of the conscious dog.
During a first phase (control) of the experiment, three successive injections of adrenalin were given and, in the 2 minutes following each injection, the frequency of the ventricular extrasystoles was measured. In this manner, by increasing the dose of adrenalin as necessary, it was possible to determine the dose which caused the appearance of ventricular extrasystoles at a higher frequency than or equal to half the total number of ventricular systoles.
After injection of the derivative to be tested, the same dose of adrenalin was reinjected after 5 minutes, then 30 minutes, 60 minutes, 90 minutes, etc., and its effects were compared to those observed during the control period.
The results therein are expressed as a percentage of extrasystoles (on the total number of systoles) measured during the 2 minutes following the injection of adrenalin before and after the administration of the derivative to be tested.

anesthetized dog [6] = test: Hemodynamic (cardiovascular) tolerance in the anesthetized dog; assay type: in vivo; conditions: i.v.; for Cardiac Flow, percentage of variation / Cardiac Frequency, percentage of variation / Systolic Arterial Pressure, percentage of variation / Total Peripheral Resistances, percentage of variation / dp/dt/p Left Ventricular, percentage of variation: vs control period
Method: The hemodynamic tolerance of the derivatives of the invention was studied on dogs anesthesized with sodium pentobarbital. Endocavitary pressures were measured by means of catheters connected to Statham sensors while external recording of the electrocardiogram (E.C.G.) provided the measurement of cardiac frequency. Cardiac flow was measured by means of an electromagnetic sensor placed on the beginning of the aorta. The total peripheral resistances R were calculated from the value of the average aortic pressure (P) and the cardiac flow (Q) in accordance with the formula R=P/Q.
After measurement of the parameters during a control period, the derivatives were injected intravenously in cumulative doses (30 minute interval between doses). The variations of the parameters in relation to the control period were measured within 20 and 30 minutes after each injection and are expressed as a percentage of variation in relation to the control.
Table 2 summarizes the variations in hemodynamic parameters observed between the first and last injections.

anesthetized dog [7] = test: Electrophysiological studies on the anesthetized dog; assay type: in vivo; conditions: i.v., doses 0.5 to 5 mg/kg; 3 evaluations
Method: This study was carried out on dogs anesthetized with pentobarbital, with a closed thorax, by means of bipolar catheter-electrodes introduced into the cardiac cavities by transcutaneous venous and arterial means. The surface electrocardiogram (standard derivation D2) is recorded permanently.
By means of a programmable JANSEN (R) stimulator, the following parameters may be measured:
spontaneous cardiac frequency (FC);
sinus recuperation time (SRTc) after auricular stimulation imposed at 160 b/mn for 1 mn;
intracardiac conduction times (auriculohisien at a constant frequency, His-Purkinje, intraventricular);
the effective and functional refractory periods measured at an imposed constant frequency, with the extrastimulus method.
During the electrophysiological study, the derivatives were injected intravenously for 2 minutes for each dose and at 30 minute intervals between each dose. The doses are expressed as a cumulative value and as a base term.
The measurement of the various parameters was carried out before the injection of the first dose (control period) and from 10 to 28 minutes after the injection of each dose of the substance. The results are expressed as a percentage of variation in relation to the control period.

[8] = 10 mg/kg, control period 40% of ESV
[9] = 4.3 mg/kg, control period 94% of ESV
[10] = cumulative doses 0.1 to 3 mg/kg

SMILES | MTD [1] [mg/kg] | LD50 [2] [mg/kg] | ED50 [3] [mg/kg] | Prolongation of time of appearance of ventricular extrasystoles (ESV) ([4]; 5 mg/kg) | Prolongation of time of appearance of ventricular tachycardium (TV) ([4]; 5 mg/kg) | Prolongation of time to death ([4]; 5 mg/kg) | Prolongation of time of appearance of ventricular extrasystoles (ESV) ([4]; 10 mg/kg) | Prolongation of time of appearance of ventricular tachycardium (TV) ([4]; 10 mg/kg) | Prolongation of time to death ([4]; 10 mg/kg) | Prolongation of time of appearance of ventricular extrasystoles (ESV) ([4]; 20 mg/kg) | Prolongation of time of appearance of ventricular tachycardium (TV) ([4]; 20 mg/kg) | Prolongation of time to death ([4]; 20 mg/kg) | also measured
CC1(NC(=O)c2ccccc2)C2CC3CC1CN(C2)C3(C)C (centres unmarked) [Example 7, 4-N-benzoylamino-4,8,8-trimethyl-1-azaadamantane] | 150 | 230 | 76 | +59% | +53% | +29% | +35% | +35% | +45% | +111% | +105% | +89% | –
COc1ccc(CCC(=O)NC2(C)C3CC4CC2CN(C3)C4(C)C)cc1 (centres unmarked) [Example 5, N-[3-(p-methoxy-phenyl)propionyl]-4-amino-4,8,8-trimethyl-1-azaadamantane] | 200 | 250 | 61 | +41% | +20% | +21% | +51% | +48% | +36% | +65% | +54% | +50% | ESV Percentage at 5 min [5, 8]: 9%; ESV Percentage at 30 min [5, 8]: 14%; ESV Percentage at 60 min [5, 8]: 16%; Cardiac frequency, in words (anesthetized dog [6]; anesthetized dog): the frequency does not change; Cardiac Flow, percentage of variation (anesthetized dog [6]; cumulative doses 1 to 10 mg/kg): +4 to -8%; Cardiac Frequency, percentage of variation (anesthetized dog [6]; cumulative doses 1 to 10 mg/kg): 0%; Systolic Arterial Pressure, percentage of variation (anesthetized dog [6]; cumulative doses 1 to 10 mg/kg): 0 to +3%; Total Peripheral Resistances, percentage of variation (anesthetized dog [6]; cumulative doses 1 to 10 mg/kg): -6 to +11%; dp/dt/p Left Ventricular, percentage of variation (anesthetized dog [6]; cumulative doses 1 to 10 mg/kg): +2 to -15%
CC1(NC(=O)c2ccc(N)cc2)C2CC3CC1CN(C2)C3(C)C (centres unmarked) [Example 3, N-(p-aminobenzoyl)-4-amino-4,8,8-trimethyl-1-azaadamantane] | 50 | 95 | 37 | – | – | – | – | – | – | – | – | – | F.C. (cardiac frequency), variation (anesthetized dog [7]): 0 to -24%; HV (time of His-Purkinje conduction), variation (anesthetized dog [7]): +13 to +98%; PREA (effective auricular refractory period), variation (anesthetized dog [7]): +2 to +50%; PREV (effective ventricular refractory period), variation (anesthetized dog [7]): 0 to +20%; QRS (time of intraventricular conduction), variation (anesthetized dog [7]): +8 to +39%; St-H (time of auriculohisien conduction), variation (anesthetized dog [7]): +2 to +76%; ESV Percentage at 5 min [5, 9]: 63%; ESV Percentage at 30 min [5, 9]: 77%; ESV Percentage at 60 min [5, 9]: 90%; Cardiac Flow, percentage of variation (anesthetized dog [6]; [10]): +7 to -32%; Cardiac Frequency, percentage of variation (anesthetized dog [6]; [10]): 0 to -14%; Systolic Arterial Pressure, percentage of variation (anesthetized dog [6]; [10]): -3 to -33%; Total Peripheral Resistances, percentage of variation (anesthetized dog [6]; [10]): -10 to +7%; dp/dt/p Left Ventricular, percentage of variation (anesthetized dog [6]; [10]): +14 to -50%
